Data taken from patent publication US20250011288A1 (BRISTOL-MYERS SQUIBB COMPANY, priority 2021, published 2025).

Molecular target: T1, human RXFP1 (Homo sapiens, UniProt Q9HBX9)
T1 construct: expressed in transfected cells
T1 sequence (Q9HBX9 1-757): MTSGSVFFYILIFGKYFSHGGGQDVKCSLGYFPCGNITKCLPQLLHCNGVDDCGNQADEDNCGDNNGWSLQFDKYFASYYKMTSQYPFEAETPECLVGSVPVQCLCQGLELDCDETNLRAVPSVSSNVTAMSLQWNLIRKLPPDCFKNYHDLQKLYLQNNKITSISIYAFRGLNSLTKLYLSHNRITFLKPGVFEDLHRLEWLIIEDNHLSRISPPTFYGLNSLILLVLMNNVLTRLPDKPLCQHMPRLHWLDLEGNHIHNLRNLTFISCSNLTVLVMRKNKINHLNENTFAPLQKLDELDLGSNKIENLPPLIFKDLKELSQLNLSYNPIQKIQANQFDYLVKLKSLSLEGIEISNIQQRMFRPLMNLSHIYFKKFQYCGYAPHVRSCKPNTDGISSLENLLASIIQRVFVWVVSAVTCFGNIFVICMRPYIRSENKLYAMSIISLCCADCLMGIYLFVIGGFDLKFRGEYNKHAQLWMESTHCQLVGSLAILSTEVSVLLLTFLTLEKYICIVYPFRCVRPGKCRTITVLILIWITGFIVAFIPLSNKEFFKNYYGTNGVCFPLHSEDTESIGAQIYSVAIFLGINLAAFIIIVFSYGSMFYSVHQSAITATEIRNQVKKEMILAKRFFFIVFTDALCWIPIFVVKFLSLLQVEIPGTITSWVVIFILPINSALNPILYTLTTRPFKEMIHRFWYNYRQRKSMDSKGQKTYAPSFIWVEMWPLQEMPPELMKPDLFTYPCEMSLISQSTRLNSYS
Experiment: human RXFP1 (hRXFP1) HEK293 cAMP assay (HTRF)
Type: cell-based
Conditions: HEK293 cells stably expressing human RXFP1, 30 min at room temperature
In short: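 HEK293 cells stably expressing human RXFP1 (1500 cells/well) in HBSS/20 mM HEPES/0.05% BSA/0.5 mM IBMX, treated with compound (0.010 nM–50 µM final, 2% DMSO) for 30 min at room temperature. Intracellular cAMP read by HTRF; potency from 4-parameter logistic fit of cAMP versus concentration.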

Compound | EC50 [nM]
COc1ncc(C2=NOC3CC(CO)CC23)cc1C(=O)N[C@H]1[C@@H](C(=O)N[C@H](C)C2(C)CC(F)(F)C2)[C@H]2CC[C@@H]1/C2=C\C1CC1 (stereo partly drawn) [Example 140, N-((1R,2R,3S,4R,Z)-7-(cyclopropyl-methylene)-3-(((R)-1-(3,3-difluoro-1-methylcyclobutyl)ethyl)carbamoyl)bicyclo[2.2.1]heptan-2-yl)-5-(5-(hydroxymethyl)-3a,5,6,6a-tetrahydro-4H-cyclopenta[d]isoxazol-3-yl)-2-methoxynicotinamide] | 3.2
Cn1c(=O)c(C(=O)N[C@@H]2C3CCC(/C3=C/C3CC3)[C@@H]2C(=O)Nc2ccc(F)c(C(F)(F)F)c2)cc2ccccc21 (some centres unmarked) [Example 19] | 4000
COc1cnc(-c2cc(C(=O)O)ccc2F)nc1C(=O)N[C@@H]1C2CCC(/C2=C/C(F)(F)F)[C@@H]1C(=O)Nc1ccc(F)c(C(F)(F)F)c1 (stereo partly drawn) [Example 32, 4-Fluoro-3-(4-{[(2R,3S,7Z)-3-{[4-fluoro-3-(trifluoromethyl)phenyl]carbamoyl}-7-(2,2,2-trifluoroethylidene)bicyclo[2. 2.1]heptan-2-yl]carbamoyl}-5-methoxypyrimidin-2-yl)benzoic acid] | 166
COc1ncc(C2=NOC3CC(O)CC23)cc1C(=O)N[C@H]1[C@@H](C(=O)Nc2ccc(F)c(C(F)(F)F)c2)[C@H]2CC[C@@H]1/C2=C\C1CC1 (stereo partly drawn) [Example 138, N-((1R,2R,3S,4R,Z)-7-(cyclopropyl-methylene)-3-((4-fluoro-3-(trifluoromethyl)phenyl)carbamoyl)bicyclo[2.2.1]heptan-2-yl)-5-(5-hydroxy-3a,5,6,6a-tetrahydro-4H-cyclopenta[d]isoxazol-3-yl)-2-methoxynicotinamide] | 4.8
COc1ccc(-c2cc([C@H](OC(=O)Nc3ccccc3)C(F)(F)F)ccc2F)nc1C(=O)N[C@@H]1C2CCC(/C2=C/C(F)(F)F)[C@@H]1C(=O)Nc1ccc(F)c(C(F)(F)F)c1 (stereo partly drawn) [Example 39, (1S)-2,2,2-trifluoro-1-14-fluoro-3-(6-{[(2R,3S,72)-3-{[4-fluoro-3-(trifluoromethyl)phenyl]carbamoyl}-7-(2,2,2-trifluoro-ethylidene)bicyclo[2. 2.1]heptan-2-yl]carbamoyl}-5-methoxypyridin-2-yl)phenyl]ethyl N-phenylcarbamate] | 110
COc1ncc(-c2cc([C@H](OC(=O)Nc3ccccc3)C(F)(F)F)ccc2F)cc1C(=O)N[C@@H]1C2CCC(/C2=C/C2CC2)[C@@H]1C(=O)Nc1ccc(F)c(C(F)(F)F)c1 (stereo partly drawn) [Example 186, (1S)-1-[3-(5-{[(2R,3S,7Z)-7-(cyclopropyl-methylidene)-3-{[4-fluoro-3-(trifluoromethyl)phenyl]carbamoyl}bicyclo[2.2.1]heptan-2-yl]carbamoyl}-6-methoxypyridin-3-yl)-4-fluorophenyl]-2,2,2-trifluoroethyl N-phenylcarbamate] | 0.8
COc1cc2c(cc1C(=O)N[C@H]1[C@@H](C(=O)Nc3ccc(F)c(C(F)(F)F)c3)[C@H]3CC[C@@H]1/C3=C\C1CC1)CN(CCS(C)(=O)=O)CC2 [Example 84, N-((1R,2R,3S,4R,Z)-7-(cyclopropylmethylene)-3-((4-fluoro-3-(trifluoromethyl)phenyl)carbamoyl)bicyclo[2.2.1]heptan-2-yl)-6-methoxy-2-(2-(methylsulfonyl)ethyl)-1,2,3,4-tetrahydroisoquinoline-7-carboxamide] | 330
COc1ncc(C2=NOC3CC(CO)CC23)cc1C(=O)N[C@H]1[C@@H](C(=O)N[C@H](C)C2(C)CC2(F)F)[C@H]2CC[C@@H]1/C2=C\C(F)(F)F (stereo partly drawn) [Example 116, N-((1R,2R,3S,4R,Z)-3-(((1R)-1-(2,2-difluoro-1-methylcyclopropyl)ethyl)carbamoyl)-7-(2,2,2-trifluoroethylidene)bicyclo[2.2.1]heptan-2-yl)-5-(5-(hydroxymethyl)-3a,5,6,6a-tetrahydro-4H-cyclopenta[d]isoxazol-3-yl)-2-methoxynicotinamide] | 2.7
